Data taken from ChEMBL document CHEMBL5113404, “Design, synthesis and biological evaluation of new parbendazole derivatives for the treatment of HNSCC” (Eur J Med Chem, 2022).
One block for each compound: values may come before it. Active and inactive are the calls of the source. The rule behind the calls is not given here.

What was measured:
[1] = molecular target: Tubulin (Homo sapiens) (UniProt P68371+Q9H4B7+P0DPH7+P68366+Q13509+Q71U36+P04350+Q3ZCM7+P07437+P68363+Q9BQE3+Q6PEY2+Q13885+Q9BVA1+Q9BUF5); assay: Inhibition of tubulin polymerization (unknown origin) at 20 micromol/L by fluorescence based analysis; format: protein-complex assay; conditions: dose 20.0 µmol/L
[2] = Antiproliferative activity against human HN-6 cells assessed as cell growth inhibition incubated for 72 hrs by CCK-8 assay; format: functional, cell-based; conditions: HN-6, 72 h
[3] = tested on: FaDu; assay: Antiproliferative activity against human FaDu cells assessed as cell growth inhibition incubated for 72 hrs by CCK-8 assay; format: functional, cell-based
[4] = tested on: CAL-27; assay: Antiproliferative activity against human CAL-27 cells assessed as cell growth inhibition incubated for 72 hrs by CCK-8 assay; format: functional, cell-based; conditions: CAL-27, 72 h
[5] = molecular target: Tubulin; assay: Inhibition of tubulin polymerization (unknown origin) by fluorescence based analysis; format: protein-complex assay, Homo sapiens
[6] = Induction of apoptosis in human HN-6 cells assessed as viable cells at 1 micromol/L incubated for 24 hrs by Annexin-V/FITC-PI staining based flow cytometry analysis (reference value: 97.26%); format: functional; conditions: HN-6, 24 h, dose 1 µmol/L, read-out: Activity
[7] = Acute toxicity in mouse xenografted with human HN-6 cells assessed as body weight loss at 80 mg/kg,IG administered daily for 2 weeks; format: organism-based; conditions: in vivo, po, 336 h
[8] = Acute toxicity in Kunming mouse assessed as death at 1 g/Kg,IG after 15 days of administration; conditions: in vivo, po, 1000 mg/kg, 360 h, time 15 day
[9] = Half life in rat at 100 mg/kg,IG measured upto 24 hrs by HPLC analysis; format: ADME, organism-based; conditions: in vivo, po
[10] = Induction of cell cycle arrest in human HN-6 cells assessed as accumulation of cells at G1 phase at 0.1 micromol/L incubated for 24 hrs by PI staining based flow cytometry analysi (reference value: 45.33%); format: functional; conditions: dose 0.1 µmol/L, at 0.1 µM
[11] = Induction of apoptosis in human HN-6 cells assessed as necrotic cells at 1 micromol/L incubated for 24 hrs by Annexin-V/FITC-PI staining based flow cytometry analysis (reference value: 2.08%); format: functional; conditions: dose 1 µmol/L, at 1 µM
[12] = tested on: HN-6; assay: Inhibition of cell invasion in human HN-6 cells at 200 to 500 nmol/L incubated for 24 hrs by crystal violet staining based transwell assay; format: functional; conditions: dose 200-500 nmol/L
[13] = tested on: Mus musculus; assay: Antitumor activity against human HN-6 cells xenografted in mouse serum assessed as reduction on SCCAg level at 80 mg/kg,IG administered daily for 2 weeks by ELISA; format: functional, organism-based
[14] = Cytotoxicity against human HFF-1 clls assessed as reduction in cell viability incubated for 72 hrs by CCK-8 assay; format: toxicity, cell-based; conditions: HFF-1 cells
[15] = Acute toxicity in IG dosed Kunming mouse assessed as lethal dose after 15 days of administration; format: organism-based; conditions: in vivo, po, time 15 day
[16] = tested on: HN-6; assay: Induction of cell morphological changes in human HN-6 cells assessed as decrease in tubulin network around nucleus at 100 nmol/L incubated for 24 hrs by DAPI staining based confocal microscopy analysis; format: functional
[17] = Induction of apoptosis in human HN-6 cells assessed as necrotic cells at 0.1 micromol/L incubated for 24 hrs by Annexin-V/FITC-PI staining based flow cytometry analysis (reference value: 2.08%); format: functional; conditions: dose 0.1 µmol/L, at 0.1 µM
[18] = Antimigratory activity in human HN-6 cells assessed as inhibition of cell migration at 0.1 micromol/L measured after 24 hrs by scratch wound assay based fluorescence microscope analysis; format: functional; conditions: HN-6, 24 h, dose 0.1 µmol/L
[19] = Acute toxicity in Kunming mouse assessed as adverse effect at 1 g/Kg,IG after 15 days of administration; conditions: in vivo, po, 1000 mg/kg, 360 h, time 15 day
[20] = Induction of cell cycle arrest in human HN-6 cells assessed as accumulation of cells at S phase at 0.1 micromol/L incubated for 24 hrs by PI staining based flow cytometry analysi (reference value: 31.19%); format: functional; conditions: dose 0.1 µmol/L, at 0.1 µM
[21] = Induction of apoptosis in human HN-6 cells assessed as late apoptotic cells at 1 micromol/L incubated for 24 hrs by Annexin-V/FITC-PI staining based flow cytometry analysis (reference value: 8.81%); format: functional; conditions: dose 1 µmol/L, at 1 µM
[22] = Induction of apoptosis in human HN-6 cells assessed as early apoptotic cells at 1 micromol/L incubated for 24 hrs by Annexin-V/FITC-PI staining based flow cytometry analysis (reference value: 2.04%); format: functional; conditions: dose 1 µmol/L, at 1 µM
[23] = Induction of cell cycle arrest in human HN-6 cells assessed as accumulation of cells at S phase at 0.1 micromol/L incubated for 24 hrs by PI staining based flow cytometry analysi (reference value: 32.12%); format: functional; conditions: dose 0.1 µmol/L, at 0.1 µM
[24] = tested on: Mus musculus; assay: Antitumor activity against human HN-6 cells xenografted in mouse serum assessed as reduction on TPS level at 80 mg/kg,IG administered daily for 2 weeks by ELISA; format: functional, organism-based
[25] = Induction of apoptosis in human HN-6 cells assessed as early apoptotic cells at 0.1 micromol/L incubated for 24 hrs by Annexin-V/FITC-PI staining based flow cytometry analysis (reference value: 2.04%); format: functional; conditions: dose 0.1 µmol/L, at 0.1 µM
[26] = Tmax in rat at 100 mg/kg,IG measured upto 24 hrs by HPLC analysis; format: ADME, organism-based; conditions: in vivo, po
[27] = tested on: Mus musculus; assay: Antitumor activity against human HN-6 cells xenografted in mouse serum assessed as reduction on CYFRA21-1 level at 80 mg/kg,IG administered daily for 2 weeks by ELISA; format: functional, organism-based
[28] = AUC (0 to t) in rat at 100 mg/kg,IG measured upto 24 hrs by HPLC analysis; format: ADME, organism-based; parameters: dose 100 mg/kg, time < 24 hrs, route ig; conditions: in vivo, po
[29] = Cmax in rat at 100 mg/kg,IG measured upto 24 hrs by HPLC analysis; format: ADME, organism-based; parameters: dose 100 mg/kg, time < 24 hrs, route ig; conditions: in vivo, po
[30] = Induction of apoptosis in human HN-6 cells assessed as late apoptotic cells at 0.1 micromol/L incubated for 24 hrs by Annexin-V/FITC-PI staining based flow cytometry analysis (reference value: 8.81%); format: functional; conditions: dose 0.1 µmol/L, at 0.1 µM
[31] = Induction of apoptosis in human HN-6 cells assessed as viable cells at 0.1 micromol/L incubated for 24 hrs by Annexin-V/FITC-PI staining based flow cytometry analysis (reference value: 97.26%); format: functional; conditions: HN-6, 24 h, dose 0.1 µmol/L, read-out: Activity
[32] = tested on: HN-6; assay: Antitumor activity against human HN-6 cells xenografted in mouse assessed as reduction on tumor growth at 80 mg/kg,IG administered daily for 2 weeks; format: functional, organism-based

inhibition [1]: 2.99%
Structure (SMILES): CCCCc1ccc2nc(NC(=O)NCCC)[nH]c2c1
IC50 [2]: 0.549 µM

inhibition [1]: 88.8% | IC50 [5]: 5.34 µM
Structure (SMILES): CCCCc1ccc2nc(NC(=O)OCCC)[nH]c2c1
IC50 ([3]; read-out: IC50): 0.284 µM | IC50 [4]: 0.252 µM | IC50 [2]: 0.254 µM

inhibition [1]: 99.7% | IC50 [5]: 1.62 µM
Structure (SMILES): CCCCc1ccc2nc(NC(=O)OC(C)CC)[nH]c2c1 (configuration not stated)
IC50 ([3]; read-out: IC50): 0.154 µM | IC50 [4]: 0.171 µM | IC50 [2]: 0.0746 µM

Structure (SMILES): COc1ccc(/C=C\c2cc(OC)c(OC)c(OC)c2)cc1O [COMBRETASTATIN A4]
IC50 ([3]; read-out: IC50): 0.00505 µM | IC50 [4]: 0.00301 µM | IC50 [2]: 0.00443 µM

inhibition [1]: 0%
Structure (SMILES): CCCCc1ccc2nc(NC(=O)NCC)[nH]c2c1
IC50 [2]: 0.187 µM

Structure (SMILES): C=CCOC(=O)Nc1nc2ccc(CCCC)cc2[nH]1
viability at 1 µM [6]: 60.8% | IC50 ([3]; read-out: IC50): 0.126 µM | Activity [7]: Non-Toxic | IC50 [4]: 0.118 µM | Activity [8]: Non-Toxic | half-life [9]: 2.19 h | inhibition [1]: 86.6% | Activity [10]: 14.51% | Activity [11]: 5.48% | IC50 [2]: 0.0469 µM | inhibition [12]: Active | Activity [13]: Active | IC50 at 72 h [14]: > 20 µM | LD50 at 360 h [15]: > 1000 mg/kg | Activity [16]: Active | Activity [17]: 3.77% | inhibition at 0.1 µM [18]: 8.1% | Activity [19]: Non-Toxic | Activity [20]: 64.65% | Activity [21]: 21.43% | Activity [22]: 12.28% | Activity [23]: 19.14% | Activity [24]: Active | IC50 [5]: 4.41 µM | Activity [25]: 4.98% | Tmax [26]: 4 h | Activity [27]: Active | AUC(0-t) at 24 h [28]: 0.386 µg·h/mL | Cmax [29]: 0.083 µg/mL | Activity [30]: 12.09% | viability at 0.1 µM [31]: 79.3% | Activity [32]: Active

inhibition [1]: 12.5%
Structure (SMILES): CCCCCCNC(=O)Nc1nc2ccc(CCCC)cc2[nH]1
IC50 [2]: 1.4 µM

inhibition [1]: 44.1%
Structure (SMILES): CCCCOC(=O)Nc1nc2ccc(CCCC)cc2[nH]1
IC50 [2]: 0.254 µM

Structure (SMILES): CCCCc1ccc2[nH]c(NC(=O)OC)nc2c1 [PARBENDAZOLE]
viability at 1 µM [6]: 51.8% | IC50 ([3]; read-out: IC50): 0.16 µM | IC50 [4]: 0.173 µM | Activity [8]: Non-Toxic | half-life [9]: 2.16 h | inhibition [1]: 76.7% | Activity [10]: 13.56% | Activity [11]: 5.94% | IC50 [2]: 0.102 µM | inhibition [12]: Active | IC50 at 72 h [14]: > 20 µM | LD50 at 360 h [15]: > 1000 mg/kg | Activity [16]: Active | Activity [17]: 4.46% | inhibition at 0.1 µM [18]: 12.8% | Activity [19]: Non-Toxic | Activity [20]: 69.09% | Activity [21]: 25.96% | Activity [22]: 16.34% | Activity [23]: 16.02% | IC50 [5]: 9.55 µM | Activity [25]: 13.03% | Tmax [26]: 4 h | AUC(0-t) at 24 h [28]: 0.403 µg·h/mL | Cmax [29]: 0.141 µg/mL | Activity [30]: 21.71% | viability at 0.1 µM [31]: 60.8%

Structure (SMILES): COc1cc2c(c(OC)c1OC)-c1ccc(OC)c(=O)cc1[C@@H](NC(C)=O)CC2 [COLCHICINE]
IC50 [3]: 0.0228 µM | IC50 [4]: 0.0375 µM | IC50 [2]: 0.0195 µM

inhibition [1]: 100% | IC50 [5]: 6.81 µM
Structure (SMILES): CCCCCc1ccc2nc(NC(=O)OC(C)C)[nH]c2c1
IC50 ([3]; read-out: IC50): 0.228 µM | IC50 [4]: 0.312 µM | IC50 [2]: 0.17 µM

inhibition [1]: 34.4%
Structure (SMILES): CCCCc1ccc2nc(NC(=O)OCC(C)C)[nH]c2c1
IC50 [2]: 0.412 µM

inhibition [1]: 9.79%
Structure (SMILES): CCCCc1ccc2nc(NC(=O)NC(C)(C)C)[nH]c2c1
IC50 [2]: > 2 µM

inhibition [1]: 0.85%
Structure (SMILES): CC(C)OC(=O)Nc1nc2ccc(F)cc2[nH]1
IC50 [2]: 1.47 µM

inhibition [1]: 0%
Structure (SMILES): CCCCCCOC(=O)Nc1nc2ccc(CCCC)cc2[nH]1
IC50 [2]: > 2 µM

inhibition [1]: 32.3%
Structure (SMILES): CCCCc1ccc2nc(NC(=O)NC3CCCC3)[nH]c2c1
IC50 [2]: 0.745 µM

inhibition [1]: 8.6%
Structure (SMILES): CCCCc1ccc2nc(NC(=O)OC3CCCC3)[nH]c2c1
IC50 [2]: 1.69 µM

inhibition [1]: 10.5%
Structure (SMILES): CCCCc1ccc2nc(NC(=O)OCc3ccccc3)[nH]c2c1
IC50 [2]: > 2 µM
